Laboratory results taken from patent EP0390515A1, “Novel adenine derivatives and their use as agents for increasing crop yields” (MITSUBISHI GAS CHEMICAL COMPANY, INC., priority 1989, dated 1990).
≈ marks a conversion by molar mass, not a printed value. Where two headings read alike, the source gives them in different places.

What was measured:
Water solubility = assay type: physicochemical
Protocol: Water solubility of adenine derivatives of the present invention and representative known cytokinin substances was measured and the results are shown in Table 7. […]

[1] = test system: Rice seeds (var.: Nankin No. 11) leaf section; assay: Assay of cytokinin activity by measurement of chlorophyll content (senescence retardation of rice leaf sections); assay type: cell-based, Rice (var.: Nankin No. 11); details: dark, 30°C, 3 days
Protocol: Rice seeds (var.: Nankin No. 11) were sown in soil mixed with fertilizer in a seed box and raised for about one month in a greenhouse (25°C in the daytime and 15°C in the night).
A leaf section 1 cm long was cut off from the center of the fourth leaf of the seedlings at the sixth leaf stage. Five leaf sections as one group which had been cut off were floated on the surface of an aqueous solution (2 ml) of the candidate compound or benzyl adenine at a given concentration contained in a glass tubular bottle of 32 mm in inner diameter. This was left to stand in the dark at 30°C for 3 days. The leaf sections were taken out and put in a test tube containing 10 ml of 80% ethanol and the glass tube was immersed in a water bath of 80°C for 20 minutes to extract chlorophyll. After cooling, 80% ethanol was added to make up to 10 ml and absorbance at 665 nm was measured. For the untreated group, water was used in place of the candidate solution in all examples.
Senescence retardation was determined according to the degree of chlorophyll retention, that is, calculated using the following formula (in all examples). [formula] • (A) : Absorbance of treated group after 3 days • (B) : Absorbance of untreated group after 3 days • (C) : Absorbance of leaves before treatment.

[2] = test system: glycine (soybean) hypocotyl section; assay: Assay for cytokinin activity according to glycine (soybean) hypocotyl section growth test (callus weight); assay type: cell-based, Soybean (var.: Enrei); details: Miller's medium with 2,4-D, dark, 30°C, about one month
Protocol: Soybean seeds (var.: Enrei) were disinfected with antiformin containing 0.7% effective chlorine for 4 minutes and washed thrice with sterilized water.
Agar (15 ml, 1.6%) was put in a test tube 2.5 cm in diameter. A groove was cut by forceps on the surface of the agar and two soybean seeds treated as above were placed in this groove and kept in the dark at 30°C for 5 days.
In a glass tubular bottle 26 mm in inner diameter was put Miller's medium, to which a given concentration of the candidate compound, benzyladenine or zeatin and […] of 2,4-D were added. The central portion of hypocotyl budding out from the above seeds was cut off to give a section 1 mm thick. Four of the sections as one group were transplanted to the Miller's medium. This was placed in the dark at 30°C for about one month and then the weight of callus formed was measured. For untreated group, the Miller's medium containing 9 mg/l of 2,4-D was used.

[3] = test system: pig weed (Amaranthus caudatus); assay: Assay of cytokinin activity to promote synthesis of betacyanin by pig weed cotyledon sections; assay type: cell-based; details: 27°C, 20 hours, dark
Protocol: Two sheets of filter paper were put double in a plastic container (19 x 28 cm) and were wetted with 60 ml of distilled water. Seeds of pig weed were sown on the filter papers and were germinated by keeping them in the dark at 27°C for 3 days. Seedlings of uniform size were chosen and were cut at the upper part of the hypocotyl and the seed coats were removed. This cotyledon with hypocotyl of 3-4 mm in length was used for assay.
Two sheets of filter paper were put double in a glass tubular bottle 32 mm in inner diameter and 1 ml of 0.0065M potassium phosphate buffer solution (pH: 6.3) containing a given concentration of the candidate compound, benzyladenine or zeatin and 0.5 g/l of tyrosine was added therein and ten of the above cotyledon sections were arranged therein and kept at 27°C for 20 hours in the dark. These ten cotyledon sections were put in a test tube containing 3 ml of distilled water and betacyanin was extracted by repeating thrice freezing and thawing. Absorbance of the solution was measured and the amount of the dye was calculated by the difference between the absorbance at 542 nm and at 620 nm. For the untreated group, 0.0065M potassium phosphate buffer solution (pH: 6.3) containing 0.5 g/l of tyrosine was used.

[4] = 20°C, read-out: Solubility (g/100 g H₂O) (20°C)

## c1coc(CNc2ncnc3[nH]cnc23)c1 [Kinetin, reference compound]
Water solubility
  solubility: 0.02 mg/mL (≈ 0.0929 mM)

## CON(C)CCCCNc1ncnc2nc[nH]c12 [MABD, N⁶-[4-(N-methoxy-N-methylamino)butyl]adenine]
[1]; 0.01 mg/l
  The senescence retardation (%): 1%
[1]; 0.1 mg/l
  The senescence retardation (%): 11%
[1]; 1.0 mg/l
  The senescence retardation (%): 21%
[1]; 10 mg/l
  The senescence retardation (%): 77%
[1]; 100 mg/l
  The senescence retardation (%): 87%
[2]; 0.01 mg/l
  The weight of soybean callus formed: 51 mg
[2]; 0.1 mg/l
  The weight of soybean callus formed: 152 mg
[2]; 1.0 mg/l
  The weight of soybean callus formed: 178 mg
[2]; 10 mg/l
  The weight of soybean callus formed: 824 mg
[3]; 0.1 mg/l
  The amount of betacyanin produced (difference between absorbance at 542 nm and 620 nm): 0.044
[3]; 1.0 mg/l
  The amount of betacyanin produced (difference between absorbance at 542 nm and 620 nm): 0.069
[3]; 10 mg/l
  The amount of betacyanin produced (difference between absorbance at 542 nm and 620 nm): 0.127
[3]; 100 mg/l
  The amount of betacyanin produced (difference between absorbance at 542 nm and 620 nm): 0.207
Water solubility; [4]
  solubility: 53 mg/mL (≈ 212 mM)

## C/C(=C\CNc1ncnc2[nH]cnc12)CO [t-Zeatin, reference compound]
[2]; 0.001 mg/l
  The weight of soybean callus formed: 52 mg
[2]; 0.01 mg/l
  The weight of soybean callus formed: 382 mg
[2]; 0.1 mg/l
  The weight of soybean callus formed: 815 mg
[2]; 1.0 mg/l
  The weight of soybean callus formed: 662 mg
[3]; 0.001 mg/l
  The amount of betacyanin produced (difference between absorbance at 542 nm and 620 nm): 0.040
[3]; 0.01 mg/l
  The amount of betacyanin produced (difference between absorbance at 542 nm and 620 nm): 0.062
[3]; 0.1 mg/l
  The amount of betacyanin produced (difference between absorbance at 542 nm and 620 nm): 0.198
[3]; 1.0 mg/l
  The amount of betacyanin produced (difference between absorbance at 542 nm and 620 nm): 0.242
Water solubility; [4]
  solubility: 1.4 mg/mL (≈ 6.39 mM)

## CON(C)CCCNc1ncnc2nc[nH]c12 [MAPD, N⁶-[3-(N-methoxy-N-methylamino)propyl]adenine]
[1]; 0.01 mg/l
  The senescence retardation (%): 18%
[1]; 0.1 mg/l
  The senescence retardation (%): 50%
[1]; 1.0 mg/l
  The senescence retardation (%): 94%
[1]; 10 mg/l
  The senescence retardation (%): 99%
[1]; 100 mg/l
  The senescence retardation (%): 91%
[2]; 0.01 mg/l
  The weight of soybean callus formed: 131 mg
[2]; 0.1 mg/l
  The weight of soybean callus formed: 143 mg
[2]; 1.0 mg/l
  The weight of soybean callus formed: 841 mg
[2]; 10 mg/l
  The weight of soybean callus formed: 677 mg
[3]; 0.1 mg/l
  The amount of betacyanin produced (difference between absorbance at 542 nm and 620 nm): 0.065
[3]; 1.0 mg/l
  The amount of betacyanin produced (difference between absorbance at 542 nm and 620 nm): 0.132
[3]; 10 mg/l
  The amount of betacyanin produced (difference between absorbance at 542 nm and 620 nm): 0.227
[3]; 100 mg/l
  The amount of betacyanin produced (difference between absorbance at 542 nm and 620 nm): 0.236
Water solubility; [4]
  solubility: 136 mg/mL (≈ 576 mM)
